We go through seven compounds from patent US7001906B2, “Pyrido-pyrido-pyrrolo pyrrolo-indole and pyrido-pyrrolo pyrrolo carbazole derivatives, method for the production thereof and pharmaceutical compositions containing said derivatives” (Les Laboratoires Servier, priority 2001, dated 2006).

Molecules are shown by their SMILES.

Common to all, as to assay type: cell-based
One assay relates to neuroblastoma SK-N-MC. In words: In vitro cytotoxicity on human cell lines: neuroblastoma SK-N-MC. The settings on record: 96 h, incubation 4 days. The method, then:
(§1) Murine leukaemia L1210 was used in vitro. The cells are cultured in RPMI 1640 complete culture medium containing 10% foetal calf serum, 2 mM glutamine, 50 units/ml of penicillin, 50 μg/ml of streptomycin and 10 mM Hepes, pH: 7.4. The cells are distributed on microplates and exposed to the cytotoxic compounds for 4 doubling periods, or 48 hours. The number of viable cells is then quantified by means of a colorimetric assay, the Microculture Tetrazolium Assay (J. Carmichael et al., Cancer Res., 47, 936–942, (1987)). The results are expressed as IC50, the concentration of cytotoxic agent which inhibits the proliferation of the treated cells by 50%.
(§2) The compounds of the invention were also tested on human cell lines according to the same experimental protocol as that described for murine leukaemia L1210, but with incubation times of 4 days instead of 2 days.

Assay [1] concerns epidermoid carcinoma A431. In words: In vitro cytotoxicity on human cell lines: epidermoid carcinoma A431. To be noted: A-431, 96 h, epidermoid carcinoma A431, incubation 4 days. The method, then:
as §1, §2

The test system of assay [2] is small cell lung carcinoma H 69. In words: In vitro cytotoxicity on human cell lines: small cell lung carcinoma H 69. The settings on record: 96 h, small cell lung carcinoma H 69, incubation 4 days. The method, then:
as §1, §2

A further assay deals with Murine leukaemia L1210. In words: In vitro cytotoxicity, murine leukaemia L1210 (Microculture Tetrazolium Assay). The settings on record: Mus musculus; L1210, exposure 4 doubling periods, or 48 hours; read-out: IC50, the concentration of cytotoxic agent which inhibits the proliferation of the treated cells by 50%. The procedure: as §1

In the case of `O=C1NC(=O)c2c1c1c3ccccc3[nH]c1c1c2c2cccnc2n1[C@@H]1O[C@H](CO)[C@@H](O)[C@H](O)[C@H]1O` [Example 3, 13-(β-D-glucopyranosyl)-12,13-dihydro-5H-pyrido[3′,2′:4,5]pyrrolo-[2,3-a]pyrrolo[3,4-c]carbazole-5,7(6H)-dione], the IC50 (with neuroblastoma SK-N-MC; in assay [1]; in assay [2]) was below 1000 nM each time.
For `O=C1NC(=O)c2c1c1c3cc([N+](=O)[O-])ccc3[nH]c1c1c2c2cccnc2n1[C@@H]1O[C@H](CO)[C@@H](O)[C@H](O)[C@H]1O` [Example 5, 9-nitro-13-(β-D-glucopyranosyl)-12,13-dihydro-5H-pyrido-[3′,2′:4,5]pyrrolo[2,3-a]pyrrolo[3,4-c]carbazole-5,7(6H)-dione], the IC50 with Murine leukaemia L1210 was below 100 nM; in the assay on neuroblastoma SK-N-MC, below 1000 nM; in assay [1] it was below 1000 nM; in assay [2], below 1000 nM.
As to `O=C1NC(=O)c2c1c1c3cccnc3[nH]c1c1c2c2cccnc2n1[C@@H]1O[C@H](CO)[C@@H](O)[C@H](O)[C@H]1O` [Example 12, 12-(β-D-glucopyranosyl)-12,13-dihydro-5H-pyrido[2,3-b]-pyrido[3′,2′:4,5]pyrrolo[3,2-g]pyrrolo[3,4-e]indole-5,7(6H)-dione], the IC50 in the assay with Murine leukaemia L1210 is below 100 nM.
Same read-out and setting: the value for `O=C1NC(=O)c2c1c1c3cccnc3[nH]c1c1c2c2ccccc2n1[C@@H]1O[C@H](CO)[C@@H](O)[C@H](O)[C@H]1O` [Example 9, 12-(β-D-glucopyranosyl)-12,13-dihydro-5H-pyrido[3′,2′:4,5]pyrrolo-[2,3-a]pyrrolo[3,4-c]carbazole-5,7(6H)-dione] was below 100 nM.
Take `O=C1NC(=O)c2c1c1c3cc(Br)ccc3[nH]c1c1c2c2cccnc2n1[C@@H]1O[C@H](CO)[C@@H](O)[C@H](O)[C@H]1O` [Example 4, 9-bromo-13-(β-D-glucopyranosyl)-12,13-dihydro-5H-pyrido-[3′,2′:4,5]pyrrolo[2,3-a]pyrrolo [3,4-c]carbazole-5,7(6H)-dione]: the IC50 in the assay with Murine leukaemia L1210 is below 100 nM; in the assay with neuroblastoma SK-N-MC it was below 1000 nM; in assay [1], below 1000 nM; in assay [2] it was below 1000 nM.
`CN1C(=O)c2c(c3c4cccnc4n([C@@H]4O[C@H](CO)[C@@H](O)[C@H](O)[C@H]4O)c3c3[nH]c4ccc(Br)cc4c23)C1=O` [Example 19, 13-(β-D-glucopyranosyl)-9-bromo-6-methyl-12,13-dihydro-5H-pyrido[3′,2′:4,5]pyrrolo[2,3-a]pyrrolo[3,4-c]carbazole-5,7(6H)-dione]: the IC50 (in the assay on neuroblastoma SK-N-MC; in assay [1]; in assay [2]) was below 1000 nM throughout.
Take `CN1C(=O)c2c(c3c4cccnc4n([C@@H]4O[C@H](CO)[C@@H](O)[C@H](O)[C@H]4O)c3c3[nH]c4ccccc4c23)C1=O` [Example 17, 13-(β-D-glucopyranosyl)-6-methyl-12,13-dihydro-5H-pyrido-[3′,2′:4,5]pyrrolo [2,3-a]pyrrolo [3,4-c]carbazole-5,7(6H)-dione]: the IC50 (in the assay with neuroblastoma SK-N-MC; in assay [1]; in assay [2]) was below 1000 nM each time.
